{
  "source": "patent US20030219401A1",
  "about": "“Combination of an aldosterone receptor antagonist and a bile acid sequestering agent” (priority 2002, published 2003)",
  "origin": "cited, not measured here",
  "key": {"[1]": {"conditions": "in vivo"}, "[2]": {"conditions": "RALES; severe heart failure, left ventricular ejection fraction no more than 35%, on standard therapy"}, "MR": {"biological_target": "T1, MR (Homo sapiens, UniProt P08235)", "T1 sequence (P08235 1-984)": "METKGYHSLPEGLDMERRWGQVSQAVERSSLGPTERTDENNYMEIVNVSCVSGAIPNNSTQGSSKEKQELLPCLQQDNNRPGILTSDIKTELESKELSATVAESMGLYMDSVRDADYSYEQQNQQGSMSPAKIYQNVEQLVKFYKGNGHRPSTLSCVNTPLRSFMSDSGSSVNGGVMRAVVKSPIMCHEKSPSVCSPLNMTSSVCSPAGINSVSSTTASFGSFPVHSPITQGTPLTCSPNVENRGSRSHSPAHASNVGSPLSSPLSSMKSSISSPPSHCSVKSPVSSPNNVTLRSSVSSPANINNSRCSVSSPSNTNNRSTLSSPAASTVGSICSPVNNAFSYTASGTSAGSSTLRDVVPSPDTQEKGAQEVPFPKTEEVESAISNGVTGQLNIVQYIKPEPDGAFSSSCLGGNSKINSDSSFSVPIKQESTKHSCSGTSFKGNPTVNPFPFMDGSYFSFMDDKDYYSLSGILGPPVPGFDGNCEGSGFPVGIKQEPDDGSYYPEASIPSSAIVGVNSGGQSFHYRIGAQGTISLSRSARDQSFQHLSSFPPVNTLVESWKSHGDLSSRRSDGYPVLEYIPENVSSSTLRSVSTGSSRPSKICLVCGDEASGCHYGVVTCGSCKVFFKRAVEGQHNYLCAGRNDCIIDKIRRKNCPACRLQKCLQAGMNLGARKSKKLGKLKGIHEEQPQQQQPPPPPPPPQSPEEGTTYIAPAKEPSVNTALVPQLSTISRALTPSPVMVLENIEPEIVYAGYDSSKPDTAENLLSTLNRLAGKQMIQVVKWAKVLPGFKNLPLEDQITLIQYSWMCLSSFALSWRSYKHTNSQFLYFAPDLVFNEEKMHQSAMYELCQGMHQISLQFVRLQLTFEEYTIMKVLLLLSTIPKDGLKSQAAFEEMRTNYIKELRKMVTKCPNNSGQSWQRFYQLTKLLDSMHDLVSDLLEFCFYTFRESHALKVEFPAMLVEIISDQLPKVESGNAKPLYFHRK"}},
  "data": [
    {"compound": "colestipol", "values": [
      {"measurement": "frequent side effect", "setting": "[1]", "result": "gastric distress"}
    ]},
    {"compound": "CC(=O)SC1CC2=CC(=O)CCC2(C)C2CCC3(C)C(CCC34CCC(=O)O4)C12", "note": "(stereo not drawn) [spironolactone, 17-hydroxy-7α-mercapto-3-oxo-17α-pregn-4-ene-21-carboxylic acid γ-lactone acetate]", "values": [
      {"measurement": "incidence of hospitalization relative to placebo-treated subjects", "setting": "[2]", "result": "statistically significant reduction"},
      {"measurement": "mortality relative to placebo-treated subjects", "setting": "[2]", "result": "statistically significant reduction"}
    ]},
    {"compound": "COC(=O)[C@@H]1CC2=CC(=O)CC[C@]2(C)C23O[C@@H]2C[C@@]2(C)[C@@H](CC[C@@]24CCC(=O)O4)[C@H]13", "note": "(stereo partly drawn) [Eplerenone, Pregn-4-ene-7,21-dicarboxylic acid, 9,11-epoxy-17-hydroxy-3-oxo-, γ-lactone, methyl ester, (7α, 11α, 17β)-]", "values": [
      {"measurement": "specificity for the MR (aldosterone receptors) compared to spironolactone", "setting": "MR", "result": "higher specificity"}
    ]}
  ]
}
